The values below come from patent US20240002846A1, “COMPOSITIONS AND METHODS FOR THE DIAGNOSIS AND TREATMENT OF ITCH” (Duke University, priority 2020, published 2024).

Where “and” joins values, the source holds several entries; their conditions need not be identical. Identical values can stand only once. Entries after “also recorded” stand apart in the source; their conditions may differ.

One experiment has as its system mice. Kind of experiment: Effect of inhibitor pretreatment on LPA-, LPC- or miR-146a-induced scratching behavior. It is filed as in vivo, mouse.
In the next experiment the target is T1, hTRPV4-R269H (Homo sapiens, UniProt Q9HBA0, R269H).
T1 construct: expressed in transfected cells; host or cells: HEK293
Put plainly: Inside-out patch-clamp, hTRPV4-R269H. It counts as biochemical. Particulars: 5 μM LPC 18:1. As for the experimental part:
(§1) Cell culture and transfection. HEK293 cells (ATCC® CRL-1573) were cultured on poly-D-lysine coated coverslips in 24-well plate containing DMEM media with high-Glucose (Gibco, Gaithersburg, MD) supplemented with 10% fetal bovine serum (FBS, HyClone Laboratories, Logan, UT) and 100 U/mL of penicillin/streptomycin (Gibco, Gaithersburg, MD). Cell cultures were maintained with 5% of CO2 in a humidified incubator at 37° C. HEK cells were transfected with rat or human wild type or mutant TRPV4 channels with EGFP or YFP coupled to their C-termini (1.5 μg of plasmid for excised patch clamp and Ca^2+ imaging and 200 ng for single-channel experiments). […]
(§2) Electrophysiology. Currents were recorded using the inside-out configuration of the patch-clamp technique (Hamill et al. Pflugers Arch. 1981, 391, 85-100). […] Mean current values in response to GSK1016790A or LPC 18:1 were measured after channel activation had reached the steady-state (˜3 min). […] Currents were low-pass filtered at 2 kHz and sampled at 10 kHz with an EPC 10 amplifier (HEKA Elektronik) and were plotted and analyzed with Igor Pro (Wavemetrics Inc.).

For a further experiment, the target named is rTRPV4 (Rattus norvegicus, UniProt Q9ERZ8). Put plainly: Inside-out patch-clamp, HEK cells transfected with rTRPV4. It counts as biochemical. On the set-up: expressed in transfected cells; host or cells: HEK293. Particulars: 5 μM LPC 18:1, WT-rTRPV4, inside-out patches. How it is done:
as §1, §2

Experiment [1] concerns human TRPV4 mutations (R746C, R746G, R746D, K754G, R757G, R774G, and W776G). Put plainly: Ca2+ imaging in HEK cells transfected with human TRPV4 mutations. It is filed as cell-based. How it is done:
as §1, with “experiments). The jetPEI™ Polyplus transfection reagent (Polyplus Transfection, New York, NY) for electrophysiology or Lipofectamine™ 2000 Reagent (Invitrogen, Waltham, MA) for Ca^2+ imaging were used for transfections per manufacturer's instructions as previously described (Chen et al. Pain 2014, 155, 2662-2672; Morales-Lazaro et al. Nat. Commun. 2016, 7, 13092).” for “experiments).”
In vitro and ex vivo Ca^2+ imaging. […] Ratios of emissions were acquired at 0.5 Hz. ΔR/R0 was determined as the fraction of the increase of a given ratio over baseline ratio divided by baseline ratio. […]

Sequence of rTRPV4 (Q9ERZ8 whole entry): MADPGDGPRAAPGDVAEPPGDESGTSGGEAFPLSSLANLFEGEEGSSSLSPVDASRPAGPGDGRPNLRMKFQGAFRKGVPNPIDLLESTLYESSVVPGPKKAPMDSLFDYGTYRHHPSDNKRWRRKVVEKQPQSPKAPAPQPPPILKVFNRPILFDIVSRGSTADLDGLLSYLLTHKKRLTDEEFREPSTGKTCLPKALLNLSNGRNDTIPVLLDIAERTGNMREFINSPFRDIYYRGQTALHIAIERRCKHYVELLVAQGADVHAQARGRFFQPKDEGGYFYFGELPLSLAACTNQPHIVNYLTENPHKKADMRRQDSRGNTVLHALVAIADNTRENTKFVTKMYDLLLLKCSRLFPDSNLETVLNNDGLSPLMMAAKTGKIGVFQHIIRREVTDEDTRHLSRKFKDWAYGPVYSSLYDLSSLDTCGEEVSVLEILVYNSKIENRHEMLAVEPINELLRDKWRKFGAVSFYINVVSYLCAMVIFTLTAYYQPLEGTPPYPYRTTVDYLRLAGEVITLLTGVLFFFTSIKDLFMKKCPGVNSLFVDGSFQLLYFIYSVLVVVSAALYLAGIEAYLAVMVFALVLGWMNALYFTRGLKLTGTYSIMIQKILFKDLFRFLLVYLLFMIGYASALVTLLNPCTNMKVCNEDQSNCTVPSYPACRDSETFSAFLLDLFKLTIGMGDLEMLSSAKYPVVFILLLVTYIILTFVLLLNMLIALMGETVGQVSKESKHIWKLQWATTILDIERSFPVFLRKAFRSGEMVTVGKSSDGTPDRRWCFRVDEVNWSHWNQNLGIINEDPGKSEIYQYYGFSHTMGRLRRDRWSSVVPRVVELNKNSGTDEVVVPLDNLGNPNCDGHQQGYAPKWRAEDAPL
T1 sequence (Q9HBA0 whole entry R269H): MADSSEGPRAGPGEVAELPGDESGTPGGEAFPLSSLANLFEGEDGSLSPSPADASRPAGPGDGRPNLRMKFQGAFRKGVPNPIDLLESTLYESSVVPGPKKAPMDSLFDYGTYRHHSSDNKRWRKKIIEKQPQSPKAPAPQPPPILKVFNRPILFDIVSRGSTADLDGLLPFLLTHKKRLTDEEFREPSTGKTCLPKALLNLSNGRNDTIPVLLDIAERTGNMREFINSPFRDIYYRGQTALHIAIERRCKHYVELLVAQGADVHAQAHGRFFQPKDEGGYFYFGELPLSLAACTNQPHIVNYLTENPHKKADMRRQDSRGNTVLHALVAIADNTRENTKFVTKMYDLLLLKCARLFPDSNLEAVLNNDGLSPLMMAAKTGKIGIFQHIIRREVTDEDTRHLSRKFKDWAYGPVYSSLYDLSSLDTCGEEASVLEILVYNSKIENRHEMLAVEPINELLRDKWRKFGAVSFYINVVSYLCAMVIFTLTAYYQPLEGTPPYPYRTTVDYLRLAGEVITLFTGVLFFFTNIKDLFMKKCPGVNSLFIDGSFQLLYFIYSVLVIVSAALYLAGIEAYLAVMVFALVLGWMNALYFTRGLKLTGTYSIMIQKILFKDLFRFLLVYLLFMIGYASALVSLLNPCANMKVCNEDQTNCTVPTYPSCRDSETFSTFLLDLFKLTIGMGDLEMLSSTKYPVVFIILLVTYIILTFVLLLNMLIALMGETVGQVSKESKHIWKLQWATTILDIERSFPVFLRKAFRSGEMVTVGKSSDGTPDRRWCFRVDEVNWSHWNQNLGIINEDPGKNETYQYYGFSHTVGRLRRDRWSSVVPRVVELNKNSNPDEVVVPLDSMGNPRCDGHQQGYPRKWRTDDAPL

In the case of `Cc1c(C(=O)Nc2cccc(C(F)(F)F)c2)cc(-c2ccccc2)n1CCCN1CCOCC1` [HC067047], the “effect on LPC-induced itch (TRPV4 inhibitors)” value with mice (WT mice, i.p. pretreatment 20 mg/kg) is reported as “a reduction”; with mice (WT mice, i.p. pretreatment 20 mg/kg, listed as HC067), “significantly reduced”. For the same molecule, the “effect on LPA (18:1)-induced itch” value in the experiment on mice (WT mice, i.p. pretreatment 20 mg/kg, LPA 500 μg i.d.) is recorded as “no significant reduction in scratching; also recorded: not significantly altered”.

Take `N#CC(=C(/N)Sc1ccccc1N)/C(C#N)=C(\N)Sc1ccccc1N` [U0126]: the “effect on LPC-induced itch (MEK inhibitor)” value in the experiment on mice (i.d. pretreatment 20 μg/50 μL) is recorded as “significant reduction; also recorded: significantly attenuated”.

For LPC 18:1, the “average activation of currents, normalized to 1 μM GSK101” value on hTRPV4-R269H is 42±6%; at rTRPV4, 54±4%; at rTRPV4 (listed as LPC (18:1)), 54% and ~50%. In addition, the “Ca2+ signal induced by 10 μM LPC 18:1 in TRPV4 mutants vs hTRPV4” value in experiment [1] is “drastically reduced”.
